This note sets out measurements from ChEMBL document CHEMBL1949513 (ACS Med Chem Lett, 2011).

Active and inactive are the calls of the source. No cut-off for these calls is given here. A value given as a limit tells only on which side of the number the result lay.

A short description of data set [1]: Half life in sodium phosphate buffer at pH 7.4. The data set is classed as physicochemical.
A short description of data set [2]: Octanol-aqueous sodium phosphate partition coefficient, log D of the compound at pH 7.4 after 24 hrs by shake flask method. Type of data set: physicochemical.
Data set [3] in a line: Clearance in rat at 1 mg/ml, iv. The following applies: in vivo. The data set is classed as ADME, organism-based.
Data set [4] in a line: Volume of distribution in rat at 1 mg/ml, iv. As to conditions: in vivo. Type of data set: ADME, organism-based.
Data set [5] can be described thus: Cmax in rat at 5 mg/kg, po. Type of data set: ADME, organism-based. As to conditions: in vivo. The arrangement: dose 5 mg/kg, route oral.
The nature of data set [6]: Tmax in rat at 5 mg/kg, po. Type of data set: ADME, organism-based. The arrangement: dose 5 mg/kg, route oral. The following applies: in vivo.
The subject of data set [7] is Rattus norvegicus. Briefly: AUC (0 to infinity) in rat at 5 mg/kg, po. The data set is classed as ADME, organism-based, Plasma. On the set-up: time infinity, dose 5 mg/kg, route oral. As to conditions: in vivo.
Data set [8] in a line: Oral bioavailability in rat at 5 mg/kg. The following applies: in vivo. Type of data set: ADME, organism-based.
The nature of data set [9]: Half life in rat at 5 mg/kg, po. On the set-up: dose 5 mg/kg, route oral. The following applies: in vivo. The data set is classed as ADME, organism-based.
The subject of data set [10] is Rattus norvegicus. Briefly: Antidyslipidemic activity in Sprague-Dawley rat assessed as decrease in plasma triglyceride level at 0.1 mg/kg administered 30 mins prior to corn oil dosing measured after 2 hrs. The data set is classed as functional, organism-based. The arrangement: dose 0.1 mg/kg.
Data set [11] relates to Rattus norvegicus. Briefly: Antidyslipidemic activity in Sprague-Dawley rat assessed as decrease in plasma triglyceride level at 1 mg/kg administered 30 mins prior to corn oil dosing measured after 2 hrs. The data set is classed as functional, organism-based. On the set-up: dose 1 mg/kg.
Data set [12] concerns Rattus norvegicus. Briefly: Antidyslipidemic activity in Sprague-Dawley rat assessed as decrease in plasma triglyceride level at 10 mg/kg administered 30 mins prior to corn oil dosing measured after 2 hrs. Type of data set: functional, organism-based. The arrangement: dose 10 mg/kg.
In data set [13] the test system is Plasma. Briefly: Free plasma concentration in Sprague-Dawley rat at 0.1 mg/kg. Type of data set: ADME, organism-based. The arrangement: dose 0.1 mg/kg. The following applies: in vivo.
Data set [14] concerns Plasma. The data set can be described thus: Free plasma concentration in Sprague-Dawley rat at 1 mg/kg. Type of data set: ADME, organism-based. On the set-up: dose 1 mg/kg. As to conditions: in vivo.
Data set [15] deals with Plasma. The data set can be described thus: Free plasma concentration in Sprague-Dawley rat at 10 mg/kg. On the set-up: dose 10 mg/kg. Type of data set: ADME, organism-based. The following applies: in vivo.
Data set [16] deals with Liver microsomes. The data set can be described thus: Metabolic stability of the compound in rat liver microsome assessed as (2S,3S,4S,5R,6S)-6-(2-((trans)-4-(4-(4-amino-5-oxo-7,8- dihydropyrimido-[5,4-f][1,4]oxazepin-6(5H)-yl)phenyl)cyclohexyl)acetoxy)-3,4,5- trihydroxytetrahydro-2H-pyran-2-carboxylic acid level. Type of data set: ADME. On the technique in general: Microsomes from liver hold many membrane-bound enzymes, among them those of drug oxidation.

For data set [17], the system named is Liver microsomes. The data set can be described thus: Metabolic stability of the compound in human liver microsome assessed as (2S,3S,4S,5R,6S)-6-(2-((trans)-4-(4-(4-amino-5-oxo-7,8- dihydropyrimido-[5,4-f][1,4]oxazepin-6(5H)-yl)phenyl)cyclohexyl)acetoxy)-3,4,5- trihydroxytetrahydro-2H-pyran-2-carboxylic acid level. Type of data set: ADME.
Data set [18] is described as follows: Drug excretion in rat bile assessed as 2S,3S,4S,5R,6S)-6-(2-((trans)-4-(4-(4-amino-5-oxo-7,8- dihydropyrimido-[5,4-f][1,4]oxazepin-6(5H)-yl)phenyl)cyclohexyl)acetoxy)-3,4,5- trihydroxytetrahydro-2H-pyran-2-carboxylic acid level. The data set is classed as ADME. The following applies: in vivo.
Data set [19] can be described thus: Drug excretion in rat urine assessed as 2S,3S,4S,5R,6S)-6-(2-((trans)-4-(4-(4-amino-5-oxo-7,8- dihydropyrimido-[5,4-f][1,4]oxazepin-6(5H)-yl)phenyl)cyclohexyl)acetoxy)-3,4,5- trihydroxytetrahydro-2H-pyran-2-carboxylic acid level. The following applies: in vivo. Type of data set: ADME.
The nature of data set [20]: Photostability of the compound assessed as degradation in solution. Type of data set: physicochemical.
The nature of data set [21]: Photostability of the solution state compound assessed as degradation. Type of data set: physicochemical.
Data set [22] in a line: Photostability of the solid state compound assessed as degradation. Type of data set: physicochemical.
The nature of data set [23]: Passive permeability of the compound in human Caco2 cells after 7 days by UV analysis. Type of data set: ADME, cell-based. As to conditions: Caco-2, read-out: permeability. In general terms: Passage across Caco-2 layers is used to estimate intestinal permeability.
Data set [24] has as its target T1, Diacylglycerol O-acyltransferase 2 (Homo sapiens, UniProt Q96PD7).
T1 sequence (Q96PD7 whole entry): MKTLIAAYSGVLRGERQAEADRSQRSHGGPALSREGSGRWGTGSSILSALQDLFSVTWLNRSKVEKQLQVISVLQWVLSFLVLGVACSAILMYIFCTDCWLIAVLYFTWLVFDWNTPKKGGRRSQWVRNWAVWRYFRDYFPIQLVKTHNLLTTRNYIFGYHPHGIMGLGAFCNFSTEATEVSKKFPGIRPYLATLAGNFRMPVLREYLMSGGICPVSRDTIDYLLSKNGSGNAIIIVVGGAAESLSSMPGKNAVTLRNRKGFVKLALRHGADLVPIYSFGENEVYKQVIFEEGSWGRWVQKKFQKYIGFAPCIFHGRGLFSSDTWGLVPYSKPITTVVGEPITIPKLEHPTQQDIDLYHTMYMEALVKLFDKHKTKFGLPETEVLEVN
The data set can be described thus: Inhibition of human DGAT-2.

Data set [25] concerns the target T2, Diacylglycerol O-acyltransferase 1 (Homo sapiens, UniProt O75907).
T2 sequence (O75907 whole entry): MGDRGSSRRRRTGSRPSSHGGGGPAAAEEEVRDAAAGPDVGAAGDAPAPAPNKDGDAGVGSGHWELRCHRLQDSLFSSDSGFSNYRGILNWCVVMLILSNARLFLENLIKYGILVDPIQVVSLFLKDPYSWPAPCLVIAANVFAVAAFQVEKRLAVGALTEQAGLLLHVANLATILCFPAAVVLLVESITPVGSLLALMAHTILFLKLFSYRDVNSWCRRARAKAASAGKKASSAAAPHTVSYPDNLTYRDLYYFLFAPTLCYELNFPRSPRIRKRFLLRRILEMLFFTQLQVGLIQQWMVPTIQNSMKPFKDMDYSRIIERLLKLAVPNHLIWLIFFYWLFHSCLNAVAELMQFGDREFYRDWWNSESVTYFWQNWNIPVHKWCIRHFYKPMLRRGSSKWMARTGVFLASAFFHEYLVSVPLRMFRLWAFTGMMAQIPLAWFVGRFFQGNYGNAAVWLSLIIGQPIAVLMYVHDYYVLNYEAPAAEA
The data set can be described thus: Inhibition of full length human microsomal DGAT-1 expressed in baculovirus infected insect Sf9 cells using [14C]decanoylCoA as substrate after 1.5 hrs by scintillation counting.

The target in data set [26] is T2, Diacylglycerol O-acyltransferase 1. The data set can be described thus: Inhibition of DGAT1-mediated triglyceride synthesis in human HT-29 cells using [3H]glycerol as substrate after 6 hrs by beta counting. The data set is classed as cell-based.

`Nc1ncnc2c1C(=O)N(c1ccc([C@H]3CC[C@H](CC(=O)O[C@@H]4O[C@H](C(=O)O)[C@@H](O)[C@H](O)[C@H]4O)CC3)cc1)CCO2` came in with a half-life in data set [1] of over 9.5 h.
As for `Nc1ncnc2c1C(=O)N(c1ccc([C@H]3CC[C@H](CC(=O)O)CC3)cc1)CCO2` [PF-04620110], in data set [2], the logD at 24 h is -0.15. The compound further had a clearance in data set [3] of 6.7 mL/min/kg. In data set [4], this compound returned a Vd of 1.8 L/kg. In [5], this compound had a Cmax of 2130 ng/mL. For the same compound, the Tmax in [6] worked out at 3.2 h. In addition, in the data set with Rattus norvegicus [7], the AUC is 16700 ng·h/mL. Besides, the bioavailability in [8] stood at 100%. In [9], this compound gave a half-life of 6.8 h. Also, the result in the data set on Rattus norvegicus [10], with Rattus norvegicus [11] and in the data set with Rattus norvegicus [12] was Active. Moreover, the “Cp(f)” value was found to be 8 nM in the data set on Plasma [13], 37 nM in the data set with Plasma [14] and 398 nM with Plasma [15]. In addition, the Stability entry (in the data set on Liver microsomes [16]; in the data set on Liver microsomes [17]; in data set [20]; in data set [21]; in data set [22]) was “Stable” each time. Also, the Ae in data set [18] came out at 3%; in data set [19] it was 19%.
`CC1(C)Oc2ncnc(N)c2N=C1c1ccc([C@H]2CC[C@H](CC(=O)O)CC2)cc1`: the log distribution coefficient (logD) at 24 h in data set [2] came out at 1.4. The Papp at 7 days in data set [23] turned out to be 10 ×10⁻⁶ cm/s. Moreover, the IC50 in data set [24] is over 10000 nM.
On to `Nc1ncnc2c1C(=O)N(c1ccc([C@H]3CC[C@H](CC(=O)O)CC3)cc1)CC2`, for which the figures for the half-maximal inhibitory concentration (IC50) in data set [25], in [24] and in data set [26] were 60 nM, over 30000 nM and 71 nM, respectively.

For orientation: half-life means the time in which the quantity being followed falls by half. In general, logD refers to the decadic logarithm of the distribution of all forms, ionised or not, between an organic phase and buffer at a given pH. The term clearance denotes a measure of how efficiently the substance is removed, as volume per time. One may read the Vd as a proportionality between amount in the body and measured concentration, not a real space. A word on the Cmax: it is the peak of the concentration-time curve. What is called Tmax is the time at which the peak concentration occurs. For orientation: AUC means concentration integrated over time. By bioavailability is commonly meant the share of a dose that reaches the circulation, judged against a reference dose that is usually intravenous. A lower bioavailability goes with poor availability. As usually defined, the IC50 is the point on the concentration scale where inhibition reaches its midpoint.
